Source: patent publication US20250171437A1 (Agios Pharmaceuticals,Inc., priority 2022, published 2025)

Target: T1, human PAH with the R408W mutation (A375 R408W cells) (Homo sapiens, UniProt P00439, R408W)
T1 construct: expressed in transfected cells
T1 sequence (P00439 1-452 R408W): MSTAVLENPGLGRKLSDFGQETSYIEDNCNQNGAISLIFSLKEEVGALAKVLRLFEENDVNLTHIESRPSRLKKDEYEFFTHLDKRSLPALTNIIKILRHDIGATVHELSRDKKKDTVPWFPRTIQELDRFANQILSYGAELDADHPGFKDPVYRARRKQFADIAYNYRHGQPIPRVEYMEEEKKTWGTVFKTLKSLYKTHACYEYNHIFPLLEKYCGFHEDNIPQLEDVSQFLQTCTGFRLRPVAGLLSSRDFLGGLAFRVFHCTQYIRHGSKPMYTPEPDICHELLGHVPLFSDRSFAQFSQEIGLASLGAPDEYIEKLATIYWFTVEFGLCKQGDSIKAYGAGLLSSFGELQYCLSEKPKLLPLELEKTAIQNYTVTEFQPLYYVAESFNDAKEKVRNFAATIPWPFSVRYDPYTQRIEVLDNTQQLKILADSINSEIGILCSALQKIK
Assay: Cell Based Phenylalanine Flux Assay
Settings: 24 hrs with compound, then 20 μM sepiapterin and 800 μM 13C9,15N-Phenylalanine for 4 hours, 13C-Tyrosine by LC-MS, average where tested multiple times
In short: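 LC-MS quantitation of 13C-tyrosine in media gave AC50 values. Stable A375 R408W PAH cells were preincubated 24 h with compound, then fed 800 μM labelled Phe plus 20 μM sepiapterin for 4 h. Dose curves were 10-point, tested in duplicate, averaged over repeat runs.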

[1] = A375 cells expressing R408W PAH

Compound | AC50 (A375 R408W cells) [nM] | AC50 [1] [nM]
CC(C)(O)c1nc(C(F)F)c(C(=O)N2CCc3[nH]cnc3[C@H]2c2nc3c(Br)cccc3o2)o1 [Example 431, (S)-(4-(4-bromobenzo[d]oxazol-2-yl)-6,7-dihydro-1H-imidazo[4,5-c]pyridin-5(4H)-yl)(4-(difluoromethyl)-2-(2-hydroxypropan-2-yl)oxazol-5-yl)methanone] | ≤ 500 | 
CN(C)C(C)(C)c1nc(C(F)F)c(C(=O)N2CCc3[nH]cnc3[C@@H]2c2nc3cc(F)ccc3o2)o1 [Example 292, (R)-(4-(difluoromethyl)-2-(2-(dimethylamino)propan-2-yl)oxazol-5-yl)(4-(5-fluorobenzo[d]oxazol-2-yl)-6,7-dihydro-1H-imidazo[4,5-c]pyridin-5(4H)-yl)methanone] | ≤ 500 | 
Cc1nc(-c2cnn(C)c2)oc1C(=O)N1CCc2[nH]cnc2[C@H]1c1nc2cccc(F)c2o1 [Example 596, (S)-(4-(7-fluorobenzo[d]oxazol-2-yl)-6,7-dihydro-1H-imidazo[4,5-c]pyridin-5(4H)-yl)(4-methyl-2-(1-methyl-1H-pyrazol-4-yl)oxazol-5-yl)methanone] | ≤ 500 | 
Cc1cccc2nc([C@@H]3c4nc[nH]c4CCN3C(=O)c3oc(C(C)(C)O)nc3C(F)F)oc12 [Example 392, (S)-(4-(difluoromethyl)-2-(2-hydroxypropan-2-yl)oxazol-5-yl)(4-(7-methylbenzo[d]oxazol-2-yl)-6,7-dihydro-1H-imidazo[4,5-c]pyridin-5(4H)-yl)methanone] | ≤ 500 | 
COc1cccc2oc([C@H]3c4nc[nH]c4CCN3C(=O)c3cnco3)nc12 [Example 622, (R)-(4-(4-methoxybenzo[d]oxazol-2-yl)-6,7-dihydro-1H-imidazo[4,5-c]pyridin-5(4H)-yl)(oxazol-5-yl)methanone] | 1000 to 5000 | 
Cc1ccc2c(C(=O)N3CCc4[nH]cnc4[C@H]3c3nc4cccc(F)c4o3)cnn2c1 [Example 323, (S)-(4-(7-fluorobenzo[d]oxazol-2-yl)-6,7-dihydro-1H-imidazo[4,5-c]pyridin-5(4H)-yl)(6-methylpyrazolo[1,5-a]pyridin-3-yl)methanone] | ≤ 500 | 
Cc1cccc2nc([C@H]3c4nc[nH]c4CCN3C(=O)c3nnc(-c4ccn(C)n4)o3)oc12 [Example 870, (R)-(5-(1-methyl-1H-pyrazol-3-yl)-1,3,4-oxadiazol-2-yl)(4-(7-methylbenzo[d]oxazol-2-yl)-6,7-dihydro-1H-imidazo[4,5-c]pyridin-5(4H)-yl)methanone] | 1000 to 5000 | 
Cc1ccc2nc([C@@H]3c4nc[nH]c4CCN3C(=O)c3ocnc3C(F)(F)F)oc2c1 [Example 57, (S)-(4-(6-methylbenzo[d]oxazol-2-yl)-6,7-dihydro-1H-imidazo[4,5-c]pyridin-5(4H)-yl)(4-(trifluoromethyl)oxazol-5-yl)methanone] | ≤ 500 | 
O=C(c1ocnc1C(F)F)N1CCc2[nH]cnc2[C@@H]1c1nc2c(F)ccc(F)c2o1 [Example 374, (R)-(4-(4,7-difluorobenzo[d]oxazol-2-yl)-6,7-dihydro-1H-imidazo[4,5-c]pyridin-5(4H)-yl)(4-(difluoromethyl)oxazol-5-yl)methanone] | ≤ 500 | 
O=C(c1cnn2cc(N3CCOCC3)c(Cl)cc12)N1CCc2[nH]cnc2[C@@H]1c1nc2cc(F)ccc2o1 [Example 176, (R)-(5-chloro-6-morpholinopyrazolo[1,5-a]pyridin-3-yl)(4-(5-fluorobenzo[d]oxazol-2-yl)-6,7-dihydro-1H-imidazo[4,5-c]pyridin-5(4H)-yl)methanone] | 1000 to 5000 | 
Cc1ccc2nc([C@H]3c4nc[nH]c4CCN3C(=O)c3nnc(-c4ccccn4)o3)oc2c1 [Example 102, (R)-(4-(6-methylbenzo[d]oxazol-2-yl)-6,7-dihydro-1H-imidazo[4,5-c]pyridin-5(4H)-yl)(5-(pyridin-2-yl)-1,3,4-oxadiazol-2-yl)methanone] | 1000 to 5000 | 
Cn1ccc(-c2nc(C(F)F)c(C(=O)N3CCc4[nH]cnc4[C@H]3c3nc4cccc(F)c4o3)o2)n1 [Example 591, (S)-(4-(difluoromethyl)-2-(1-methyl-1H-pyrazol-3-yl)oxazol-5-yl)(4-(7-fluorobenzo[d]oxazol-2-yl)-6,7-dihydro-1H-imidazo[4,5-c]pyridin-5(4H)-yl)methanone] | ≤ 500 | 
CC(C)(C)OC(=O)N1CC(c2nnc(C(=O)N3CCc4[nH]cnc4C3c3nc4cc(F)ccc4o3)o2)C1 (stereo not drawn) |  | 1000 to 5000
CC(O)c1nc(Br)c(C(=O)N2CCc3[nH]cnc3[C@@H]2c2nc3cc(F)ccc3o2)o1 (single isomer, unassigned) [Example 223] | 1000 to 5000 | 
CC(C)(CO)c1nc(C(F)F)c(C(=O)N2CCc3[nH]cnc3[C@@H]2c2nc3cc(F)ccc3o2)o1 [Example 823, (R)-(4-(difluoromethyl)-2-(1-hydroxy-2-methylpropan-2-yl)oxazol-5-yl)(4-(5-fluorobenzo[d]oxazol-2-yl)-6,7-dihydro-1H-imidazo[4,5-c]pyridin-5(4H)-yl)methanone] | 1000 to 5000 | 
O=C(c1ccnn1C(F)(F)F)N1CCc2[nH]cnc2[C@H]1c1nc2ccc(F)cc2o1 [Example 287, (S)-(4-(6-fluorobenzo[d]oxazol-2-yl)-6,7-dihydro-1H-imidazo[4,5-c]pyridin-5(4H)-yl)(1-(trifluoromethyl)-1H-pyrazol-5-yl)methanone] | 500 to 1000 | 
Nc1cc2c(C(=O)N3CCc4[nH]cnc4C3c3nc4cc(F)ccc4o3)cnn2cc1F (stereo not drawn) |  | 1000 to 5000
CC(C)(O)c1noc(C(=O)N2CCc3[nH]cnc3C2c2nc3c(F)cccc3o2)n1 (stereo not drawn) |  | ≥ 5000
O=C(c1ccnn1CC(F)F)N1CCc2[nH]cnc2[C@@H]1c1nc2c(F)cccc2o1 [Example 849, (R)-(1-(2,2-difluoroethyl)-1H-pyrazol-5-yl)(4-(4-fluorobenzo[d]oxazol-2-yl)-6,7-dihydro-1H-imidazo[4,5-c]pyridin-5(4H)-yl)methanone] | ≤ 500 | 
Cc1cc(C(=O)N2CCc3[nH]cnc3[C@@H]2c2nc3cccc(F)c3o2)n(C)n1 [Example 770, (R)-(1,3-dimethyl-1H-pyrazol-5-yl)(4-(7-fluorobenzo[d]oxazol-2-yl)-6,7-dihydro-1H-imidazo[4,5-c]pyridin-5(4H)-yl)methanone] | 1000 to 5000 | 
CC(C)(C)c1ncc(C(=O)N2CCc3[nH]cnc3[C@@H]2c2nc3cc(F)ccc3o2)o1 [Example 22, (R)-(2-(tert-butyl)oxazol-5-yl)(4-(5-fluorobenzo[d]oxazol-2-yl)-6,7-dihydro-1H-imidazo[4,5-c]pyridin-5(4H)-yl)methanone] | 1000 to 5000 | 
CNC(C)(C)c1nc(C)c(C(=O)N2CCc3[nH]cnc3C2c2nc3cc(F)ccc3o2)o1 (stereo not drawn) |  | 1000 to 5000
O=C(c1cnn2cc(N3CCC(F)CC3)ccc12)N1CCc2[nH]cnc2[C@H]1c1nc2cccc(F)c2o1 [Example 369, (S)-(4-(7-fluorobenzo[d]oxazol-2-yl)-6,7-dihydro-1H-imidazo[4,5-c]pyridin-5(4H)-yl)(6-(4-fluoropiperidin-1-yl)pyrazolo[1,5-a]pyridin-3-yl)methanone] | ≤ 500 | 
COc1ccc2oc([C@@H]3c4nc[nH]c4CCN3C(=O)c3nnc(-c4ccccn4)o3)nc2c1 [Example 555, (S)-(4-(5-methoxybenzo[d]oxazol-2-yl)-6,7-dihydro-1H-imidazo[4,5-c]pyridin-5(4H)-yl)(5-(pyridin-2-yl)-1,3,4-oxadiazol-2-yl)methanone] | 500 to 1000 | 
